Results taken from US20050153932A1, “Controlled muscle relaxation” (priority 2003, published 2005).

How the values were obtained:
[1] = test system: neuromuscular block in a patient; details: endotracheal intubation; cited from earlier work
[2] = test system: M. adductor pollicis contractions; experiment: Vecuronium-induced block of M. adductor pollicis contractions (TOF stimulation) and effect of Org 25969 in anaesthetised Rhesus monkeys; format: in vivo, Rhesus monkey; details: for 0.50-0.90 TOF ratio interval / 25-75% recovery index / time to 25% recovery of T1 / time to 90% recovery of T1 / time to TOF ratio 0.90: spontaneous recovery
Protocol: • T1: first twitch: amplitude of the first response to TOF stimulation, expressed as percentage of control T1 (%). • T4/T1 ratio: the ratio of T4 over T1 (within one TOF stimulus) expressed as decimals.
Female Rhesus monkeys were starved overnight and sedated with 10 mg·kg^−1 ketamine i.m., followed by i.v. injection of 25 mg·kg^−1 pentobarbitone sodium and subsequent infusion of 5-10 mg·kg^−1hr^−1. The animals were intubated and ventilated with a mixture of oxygen and nitrous oxide (2:3), using a ventilator. The expired CO2 level was measured using a capnograph. The tidal volume was adjusted to obtain a CO2 level of approximately 4.5%. Oxygen saturation was measured via a probe on the earlobe using a pulse oxymeter. Blood pressure was measured non-invasively with a cuff placed on the tail. The ECG was recorded and heart rate was measured. Rectal temperature was measured and body temperature was kept at 37-38° C. using a heating blanket. The right hand and right arm of the animal were fixed to a frame using surgical tape. The thumb was connected to a force transducer. A pre-load of 200-500 mN was applied. Two needle electrode were placed near the N. ulnaris and the nerve was stimulated with train-of-four pulses (pulse duration: 2 ms, train-frequency: 0.07 Hz). At the end of the experiment, the animals were allowed to recover from anesthesia. Appropriate recovery care was given to all animals. Two groups of monkeys were used to assess the reversal effects of Org 25969 against the neuromuscular blocking agents rocuronium (Esmeron®/Zemuron®) and vecuronium (Norcuron®). In the first group, animals initially received an intravenous bolus injection of a 1×ED90 dose of rocuronium bromide to induce neuromuscular block, followed by spontaneous recovery of the twitches. After complete recovery of the twitches, each group received a second and larger 5×ED90 dose of rocuronium followed by spontaneous recovery in one subgroup, whereas the other subgroup received an intravenous bolus dose of 1150 nmol·kg^−1 Org 25969 as soon as all twitches had disappeared. In the vecuronium groups of animals, the same protocol was used, but rocuronium was replaced by vecuronium. Rocuronium bromide and vecuronium bromide were dissolved in a citric acid/phosphate/mannitol buffer (pH 4.0). Org 25969 was dissolved in saline.

[3] = 5× ED90 vecuronium, spontaneous recovery subgroup

Compound: C[N+](C)(C)CCOC(=O)CCC(=O)OCC[N+](C)(C)C [suxamethonium]
- duration of action [1]: 5 to 8 min
- onset [1]: ~1 min

Compound: CC(=O)O[C@H]1C[C@@H]2CC[C@@H]3[C@H](CC[C@@]4(C)[C@H]3C[C@H]([N+]3(C)CCCCC3)[C@@H]4OC(C)=O)[C@@]2(C)C[C@@H]1N1CCCCC1 [vecuronium, vecuronium bromide]
- onset time ([2]; 1× ED90 vecuronium): 4.3 ± 0.6 min
- 0.50-0.90 TOF ratio interval ([2]; 1× ED90 vecuronium): 4.9 ± 0.5 min
- 25-75% recovery index ([2]; 1× ED90 vecuronium): 5.4 ± 0.8 min
- time to 25% recovery of T1 ([2]; 1× ED90 vecuronium): 8.6 ± 1.0 min
- time to 90% recovery of T1 ([2]; 1× ED90 vecuronium): 18.1 ± 1.9 min
- time to TOF ratio 0.90 ([2]; 1× ED90 vecuronium): 17.2 ± 1.6 min
- block ([2]; 1× ED90 vecuronium, Mean ± SEM, n = 4): 91.5 ± 1.7%
- 0.50-0.90 TOF ratio interval ([2]; 5× ED90 vecuronium): 11.8 ± 1.3 min
- 25-75% recovery index ([2]; 5× ED90 vecuronium): 9.6 ± 2.0 min
- time to 25% recovery of T1 ([2]; 5× ED90 vecuronium): 28.6 ± 2.8 min
- time to 90% recovery of T1 ([2]; 5× ED90 vecuronium): 44.0 ± 4.6 min
- time to TOF ratio 0.90 ([2]; 5× ED90 vecuronium): 49.0 ± 4.7 min
- block [2, 3]: 100.0 ± 0.0%
- onset time [2, 3]: 1.0 ± 0.1 min
